Molecular target: T1, ZAP-70 (Homo sapiens, UniProt P43403)
T1 sequence (P43403 1-619): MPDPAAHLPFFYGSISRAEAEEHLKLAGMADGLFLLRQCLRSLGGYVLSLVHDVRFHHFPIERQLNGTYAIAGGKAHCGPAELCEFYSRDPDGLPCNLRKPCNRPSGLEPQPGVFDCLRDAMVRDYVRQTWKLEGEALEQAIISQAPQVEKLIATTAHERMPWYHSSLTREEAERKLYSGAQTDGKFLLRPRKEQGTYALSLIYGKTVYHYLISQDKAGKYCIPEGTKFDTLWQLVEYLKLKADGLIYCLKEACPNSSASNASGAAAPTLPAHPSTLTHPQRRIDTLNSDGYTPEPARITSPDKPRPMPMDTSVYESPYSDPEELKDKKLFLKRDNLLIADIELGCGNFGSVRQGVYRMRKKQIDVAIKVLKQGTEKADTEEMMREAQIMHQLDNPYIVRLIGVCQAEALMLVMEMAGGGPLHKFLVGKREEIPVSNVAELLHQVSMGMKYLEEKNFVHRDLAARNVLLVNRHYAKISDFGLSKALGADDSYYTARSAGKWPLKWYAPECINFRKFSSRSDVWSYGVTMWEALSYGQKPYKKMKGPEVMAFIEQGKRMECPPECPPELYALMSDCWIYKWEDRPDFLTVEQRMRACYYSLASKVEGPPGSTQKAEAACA
Experiment: DELFIA assay (ZAP-70 kinase, phosphorylation of biotinylated poly(glu,tyr))
Type: biochemical
Conditions: ZAP-70 DELFIA, class symbols; read-out: Activity (IC50 in vitro)
Summary of the method: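 3.1 nM ZAP-70 pre-incubated 10 min at room temperature with compound ([…]) and 62.5 nM biotinylated poly(glu,tyr) in 62.5 mM Mops pH 7.0, 12.5 mM MgCl2, 12.5% glycerol, 6.25% DMSO (pre-incubation concentrations); ATP added from 5 mM stock, 30 min reaction, EDTA stop. Phosphorylation read by DELFIA europium anti-phosphotyrosine fluorescence (340/615).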

Structure (SMILES) | IC50 [µM]
N#Cc1ccc(-c2ccc3nc(NCCc4cccc(Cl)c4)cc(C(=O)N4CCC[C@H]4CN4CCCC4)c3c2)cc1 [Compound 196] | > 10
N#Cc1ccc(-c2ccc3nc(NCc4ccc(F)cc4F)cc(C(=O)N4CCC[C@H]4CN4CCCC4)c3c2)cc1 [Compound 198] | > 10
C[C@H](c1ccccc1)N(C)c1cc(C(=O)N2CCC[C@H]2CN2CCCC2)c2cc(-c3ccc(C#N)cc3)ccc2n1 [Compound 200] | > 10
C[C@@H](Nc1cc(C(=O)N2CCC[C@H]2CN2CCCC2)c2cc(-c3ccc(C#N)cc3)ccc2n1)c1ccccc1 [Compound 201] | > 10
COc1ccc([C@@H](C)Nc2cc(C(=O)N3CCC[C@H]3CN3CCCC3)c3cc(-c4ccc(C#N)cc4)ccc3n2)cc1 [Compound 202] | > 10
N#Cc1ccc(-c2ccc3nc(N[C@@H]4CCCc5ccccc54)cc(C(=O)N4CCC[C@H]4CN4CCCC4)c3c2)cc1 [Compound 205] | > 10
CC(Nc1cc(C(=O)N2CCC[C@H]2CN2CCCC2)c2cc(-c3ccc(C#N)cc3)ccc2n1)c1ccc2ccccc2c1 (some centres unmarked) [Compound 208] | > 10
N#Cc1ccc(-c2ccc3nc(N(Cc4ccccc4)Cc4ccccc4)cc(C(=O)N4CCC[C@H]4CN4CCCC4)c3c2)cc1 [Compound 210] | > 10
CN(Cc1ccccc1Cl)c1cc(C(=O)N2CCC[C@H]2CN2CCCC2)c2cc(-c3ccc(C#N)cc3)ccc2n1 [Compound 211] | > 10
N#Cc1ccc(-c2ccc3nc(N(CCO)Cc4ccccc4)cc(C(=O)N4CCC[C@H]4CN4CCCC4)c3c2)cc1 [Compound 212] | > 10
N#Cc1ccc(-c2ccc3nc(N(CCCO)Cc4ccccc4)cc(C(=O)N4CCC[C@H]4CN4CCCC4)c3c2)cc1 [Compound 213] | > 10
N#Cc1ccc(-c2ccc3nc(N4CCc5[nH]c6c(F)cccc6c5C4)cc(C(=O)N4CCC[C@H]4CN4CCCC4)c3c2)cc1 [Compound 215] | > 10
N#Cc1ccc(-c2ccc3nc(NCc4cccc5ccccc45)cc(C(=O)N4CCC[C@H]4CN4CCCC4)c3c2)cc1 [Compound 216] | > 10
N#Cc1ccc(-c2ccc3nc(NCc4cccc(-c5ccccc5)c4)cc(C(=O)N4CCC[C@H]4CN4CCCC4)c3c2)cc1 [Compound 217] | > 10
C[C@H](c1cccc2ccccc12)N(C)c1cc(C(=O)N2CCC[C@H]2CN2CCCC2)c2cc(-c3ccc(C#N)cc3)ccc2n1 [Compound 218] | > 10
N#Cc1ccc(-c2ccc3nc(NCCc4ccc(Cl)c(Cl)c4)cc(C(=O)N4CCC[C@H]4CN4CCCC4)c3c2)cc1 [Compound 220] | > 10
C[C@H](Nc1cc(C(=O)N2CCC[C@H]2CN2CCCC2)c2cc(-c3ccc(C#N)cc3)ccc2n1)c1ccc(Br)cc1 [Compound 221] | > 10
CC(Nc1cc(C(=O)N2CCC[C@H]2CN2CCCC2)c2cc(-c3ccc(C#N)cc3)ccc2n1)c1ccc(Br)cc1 (some centres unmarked) [Compound 222] | > 10

Structure (SMILES) | IC50 [µM]
Cc1cc(CNc2cc(C(=O)N3CCC[C@H]3CN3CCCC3)c3cc(-c4ccc(C#N)cc4)ccc3n2)ccc1F [Compound 225] | > 10
Cc1ccc(CNc2cc(C(=O)N3CCC[C@H]3CN3CCCC3)c3cc(-c4ccc(C#N)cc4)ccc3n2)cc1F [Compound 227] | > 10
CSc1ccccc1CNc1cc(C(=O)N2CCC[C@H]2CN2CCCC2)c2cc(-c3ccc(C#N)cc3)ccc2n1 [Compound 228] | > 10
N#Cc1ccc(-c2ccc3nc(NCc4cccc(Cl)c4F)cc(C(=O)N4CCC[C@H]4CN4CCCC4)c3c2)cc1 [Compound 229] | > 10
N#Cc1ccc(-c2ccc3nc(NCc4csc5ccccc45)cc(C(=O)N4CCC[C@H]4CN4CCCC4)c3c2)cc1 [Compound 231] | > 10
N#Cc1ccc(-c2ccc3nc(NCc4ccccc4OC(F)F)cc(C(=O)N4CCC[C@H]4CN4CCCC4)c3c2)cc1 [Compound 232] | > 10
N#Cc1ccc(-c2ccc3nc(NCc4ccc(-c5cccs5)cc4)cc(C(=O)N4CCC[C@H]4CN4CCCC4)c3c2)cc1 [Compound 234] | > 10
N#Cc1ccc(-c2ccc3nc(NCc4ccccc4OC(F)(F)F)cc(C(=O)N4CCC[C@H]4CN4CCCC4)c3c2)cc1 [Compound 236] | > 10
N#Cc1ccc(-c2ccc3nc(NCc4cccc(C(F)(F)F)c4F)cc(C(=O)N4CCC[C@H]4CN4CCCC4)c3c2)cc1 [Compound 237] | > 10
N#Cc1ccc(-c2ccc3nc(NCc4ccc(F)cc4C(F)(F)F)cc(C(=O)N4CCC[C@H]4CN4CCCC4)c3c2)cc1 [Compound 239] | > 10
N#Cc1ccc(-c2ccc3nc(NCc4ccc(C(F)(F)F)cc4F)cc(C(=O)N4CCC[C@H]4CN4CCCC4)c3c2)cc1 [Compound 240] | > 10
N#Cc1ccc(-c2ccc3nc(NCc4csc5ccc(Cl)cc45)cc(C(=O)N4CCC[C@H]4CN4CCCC4)c3c2)cc1 [Compound 242] | > 10
CCN(Cc1ccc(C)cc1)c1cc(C(=O)N2CCC[C@H]2CN2CCCC2)c2cc(-c3ccc(C#N)cc3)ccc2n1 [Compound 244] | > 10
N#Cc1ccc(-c2ccc3nc(N4Cc5ccccc5C[C@H]4CO)cc(C(=O)N4CCC[C@H]4CN4CCCC4)c3c2)cc1 [Compound 245] | > 10
CN(Cc1cccc2ccccc12)c1cc(C(=O)N2CCC[C@H]2CN2CCCC2)c2cc(-c3ccc(C#N)cc3)ccc2n1 [Compound 246] | > 10
CN(Cc1ccc(Cl)c(Cl)c1)c1cc(C(=O)N2CCC[C@H]2CN2CCCC2)c2cc(-c3ccc(C#N)cc3)ccc2n1 [Compound 248] | > 10
N#Cc1ccc(-c2ccc3nc(NCc4ccc(F)cc4Cl)cc(C(=O)N4CCC[C@H]4CN4CCCC4)c3c2)cc1 [Compound 250] | > 10

Further lines, results first:

IC50 [µM] | Structure (SMILES)
> 10 | COc1cccc(CCNc2cc(C(=O)N3CCC[C@H]3CN3CCCC3)c3cc(-c4ccc(C#N)cc4)ccc3n2)c1 [Compound 197]
> 10 | C[C@@H](c1ccccc1)N(C)c1cc(C(=O)N2CCC[C@H]2CN2CCCC2)c2cc(-c3ccc(C#N)cc3)ccc2n1 [Compound 199]
> 10 | COc1cccc([C@@H](C)Nc2cc(C(=O)N3CCC[C@H]3CN3CCCC3)c3cc(-c4ccc(C#N)cc4)ccc3n2)c1 [Compound 203]
> 10 | COc1cccc([C@H](C)Nc2cc(C(=O)N3CCC[C@H]3CN3CCCC3)c3cc(-c4ccc(C#N)cc4)ccc3n2)c1 [Compound 204]
> 10 | N#Cc1ccc(-c2ccc3nc(N[C@H]4CCCc5ccccc54)cc(C(=O)N4CCC[C@H]4CN4CCCC4)c3c2)cc1 [Compound 206]
> 10 | C[C@@H](Nc1cc(C(=O)N2CCC[C@H]2CN2CCCC2)c2cc(-c3ccc(C#N)cc3)ccc2n1)c1ccc2ccccc2c1 [Compound 207]
> 10 | N#Cc1ccc(-c2ccc3nc(N[C@@H]4c5ccccc5C[C@@H]4O)cc(C(=O)N4CCC[C@H]4CN4CCCC4)c3c2)cc1 [Compound 209]
> 10 | C[C@@H](Nc1cc(C(=O)N2CCC[C@H]2CN2CCCC2)c2cc(-c3ccc(C#N)cc3)ccc2n1)[C@@H](O)c1ccccc1 [Compound 214]
> 10 | C[C@@H](c1cccc2ccccc12)N(C)c1cc(C(=O)N2CCC[C@H]2CN2CCCC2)c2cc(-c3ccc(C#N)cc3)ccc2n1 [Compound 219]
> 10 | CC(Nc1cc(C(=O)N2CCC[C@H]2CN2CCCC2)c2cc(-c3ccc(C#N)cc3)ccc2n1)c1ccc(F)cc1 (some centres unmarked) [Compound 223]
> 10 | Cc1ccc(CNc2cc(C(=O)N3CCC[C@H]3CN3CCCC3)c3cc(-c4ccc(C#N)cc4)ccc3n2)c(C)c1 [Compound 224]
> 10 | Cc1ccc(F)cc1CNc1cc(C(=O)N2CCC[C@H]2CN2CCCC2)c2cc(-c3ccc(C#N)cc3)ccc2n1 [Compound 226]
> 10 | N#Cc1ccc(-c2ccc3nc(NCc4cc(Cl)ccc4F)cc(C(=O)N4CCC[C@H]4CN4CCCC4)c3c2)cc1 [Compound 230]
> 10 | N#Cc1ccc(-c2ccc3nc(NCc4ccc(OC(F)F)cc4)cc(C(=O)N4CCC[C@H]4CN4CCCC4)c3c2)cc1 [Compound 233]
> 10 | N#Cc1ccc(-c2ccc3nc(NCc4ccccc4N4CCCCC4)cc(C(=O)N4CCC[C@H]4CN4CCCC4)c3c2)cc1 [Compound 235]
> 10 | N#Cc1ccc(-c2ccc3nc(NCc4cc(C(F)(F)F)ccc4F)cc(C(=O)N4CCC[C@H]4CN4CCCC4)c3c2)cc1 [Compound 238]
> 10 | N#Cc1ccc(-c2ccc3nc(NCc4cc(F)ccc4C(F)(F)F)cc(C(=O)N4CCC[C@H]4CN4CCCC4)c3c2)cc1 [Compound 241]
> 10 | N#Cc1ccc(-c2ccc3nc(NCCc4ccc(Br)cc4)cc(C(=O)N4CCC[C@H]4CN4CCCC4)c3c2)cc1 [Compound 243]
> 10 | N#Cc1ccc(-c2ccc3nc(N(CCCCO)Cc4ccccc4)cc(C(=O)N4CCC[C@H]4CN4CCCC4)c3c2)cc1 [Compound 247]
> 10 | N#Cc1ccc(-c2ccc3nc(NNCc4ccccc4)cc(C(=O)N4CCC[C@H]4CN4CCCC4)c3c2)cc1 [Compound 249]
> 10 | N#Cc1ccc(-c2ccc3nc(NCc4ccccc4-c4ccccc4)cc(C(=O)N4CCC[C@H]4CN4CCCC4)c3c2)cc1 [Compound 251]

Source: patent US20080119515A1, “Heterocyclic Kinase Inhibitors: Methods of Use and Synthesis” (priority 2003, published 2008)
